Here are results for six molecules from article PMC4382718 (Carbohydrate research, 2015).

Read-outs that look alike come from different tables or passages of the source.

Experiment [1] concerns the target T1, dGMIIb (Drosophila melanogaster Co(II)-activated Golgi α-mannosidase IIb) (Drosophila melanogaster, UniProt Q9VF33).
T1 sequence (Q9VF33 31-1249): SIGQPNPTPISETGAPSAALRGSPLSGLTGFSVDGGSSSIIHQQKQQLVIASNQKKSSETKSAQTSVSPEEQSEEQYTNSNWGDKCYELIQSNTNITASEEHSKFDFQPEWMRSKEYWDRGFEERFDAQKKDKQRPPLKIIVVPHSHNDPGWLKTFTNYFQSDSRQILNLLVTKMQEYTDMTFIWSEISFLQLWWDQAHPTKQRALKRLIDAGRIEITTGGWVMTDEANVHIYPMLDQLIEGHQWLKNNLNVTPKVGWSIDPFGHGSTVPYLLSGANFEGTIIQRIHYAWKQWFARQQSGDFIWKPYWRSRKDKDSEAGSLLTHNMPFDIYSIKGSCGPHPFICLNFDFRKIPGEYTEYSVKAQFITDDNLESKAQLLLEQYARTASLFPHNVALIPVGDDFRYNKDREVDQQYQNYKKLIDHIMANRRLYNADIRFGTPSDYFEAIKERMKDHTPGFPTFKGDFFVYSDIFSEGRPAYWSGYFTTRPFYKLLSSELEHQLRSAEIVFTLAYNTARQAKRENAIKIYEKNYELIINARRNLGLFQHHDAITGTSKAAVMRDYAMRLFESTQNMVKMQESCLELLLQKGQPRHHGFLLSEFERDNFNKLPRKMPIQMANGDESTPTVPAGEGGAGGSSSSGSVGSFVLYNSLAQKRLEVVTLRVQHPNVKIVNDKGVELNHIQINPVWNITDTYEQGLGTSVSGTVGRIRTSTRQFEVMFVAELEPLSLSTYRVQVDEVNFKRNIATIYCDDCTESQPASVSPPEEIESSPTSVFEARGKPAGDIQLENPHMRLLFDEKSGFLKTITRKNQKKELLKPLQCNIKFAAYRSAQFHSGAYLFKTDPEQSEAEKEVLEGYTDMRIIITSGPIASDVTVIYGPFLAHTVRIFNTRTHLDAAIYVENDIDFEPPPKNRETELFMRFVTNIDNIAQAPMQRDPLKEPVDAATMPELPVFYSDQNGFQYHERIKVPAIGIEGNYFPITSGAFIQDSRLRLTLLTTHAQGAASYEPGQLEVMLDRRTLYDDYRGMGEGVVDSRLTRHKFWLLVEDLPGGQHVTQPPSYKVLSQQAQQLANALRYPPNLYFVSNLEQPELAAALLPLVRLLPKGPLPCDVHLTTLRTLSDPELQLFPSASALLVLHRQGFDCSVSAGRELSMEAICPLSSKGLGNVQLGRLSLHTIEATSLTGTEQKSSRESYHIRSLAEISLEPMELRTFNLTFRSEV
The experiment can be described thus: Class II α-mannosidase inhibition assay. The format is biochemical.

In experiment [2] the target is T2, dLManII (Drosophila melanogaster lysosomal α-mannosidase II) (Drosophila melanogaster, UniProt Q9VKV1).
T2 sequence (Q9VKV1 25-1080): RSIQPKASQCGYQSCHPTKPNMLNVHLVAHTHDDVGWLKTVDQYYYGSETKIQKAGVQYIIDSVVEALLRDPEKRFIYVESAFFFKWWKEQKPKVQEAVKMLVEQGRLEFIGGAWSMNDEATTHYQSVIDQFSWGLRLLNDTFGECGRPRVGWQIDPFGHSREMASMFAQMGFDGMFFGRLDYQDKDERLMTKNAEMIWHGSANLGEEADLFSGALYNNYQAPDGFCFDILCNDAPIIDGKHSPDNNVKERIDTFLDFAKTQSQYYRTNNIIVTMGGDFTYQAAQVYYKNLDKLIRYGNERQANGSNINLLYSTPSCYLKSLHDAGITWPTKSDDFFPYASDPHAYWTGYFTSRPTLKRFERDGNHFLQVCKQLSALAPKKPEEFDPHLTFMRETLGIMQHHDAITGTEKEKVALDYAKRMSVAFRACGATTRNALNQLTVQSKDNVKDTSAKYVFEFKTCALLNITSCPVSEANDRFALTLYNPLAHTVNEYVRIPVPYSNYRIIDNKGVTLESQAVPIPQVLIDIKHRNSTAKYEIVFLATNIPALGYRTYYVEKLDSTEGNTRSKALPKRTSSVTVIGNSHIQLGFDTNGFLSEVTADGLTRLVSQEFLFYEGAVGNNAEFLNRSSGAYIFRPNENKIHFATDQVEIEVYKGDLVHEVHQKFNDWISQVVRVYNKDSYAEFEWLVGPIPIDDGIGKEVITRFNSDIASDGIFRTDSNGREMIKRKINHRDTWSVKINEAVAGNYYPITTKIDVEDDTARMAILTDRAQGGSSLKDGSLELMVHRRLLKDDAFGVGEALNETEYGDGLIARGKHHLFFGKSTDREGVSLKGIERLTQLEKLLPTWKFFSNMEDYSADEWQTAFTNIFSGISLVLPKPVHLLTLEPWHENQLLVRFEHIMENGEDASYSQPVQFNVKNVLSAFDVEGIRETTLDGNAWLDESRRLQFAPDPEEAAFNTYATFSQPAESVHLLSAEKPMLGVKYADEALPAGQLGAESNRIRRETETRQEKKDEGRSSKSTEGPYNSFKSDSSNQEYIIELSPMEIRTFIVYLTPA
Description: Class II α-mannosidase inhibition assay. The format is biochemical.

In experiment [3] the target is T3, jack bean α-mannosidase (JBMan) (Canavalia ensiformis, UniProt C0HJB3).
T3 sequence (C0HJB3 1-981): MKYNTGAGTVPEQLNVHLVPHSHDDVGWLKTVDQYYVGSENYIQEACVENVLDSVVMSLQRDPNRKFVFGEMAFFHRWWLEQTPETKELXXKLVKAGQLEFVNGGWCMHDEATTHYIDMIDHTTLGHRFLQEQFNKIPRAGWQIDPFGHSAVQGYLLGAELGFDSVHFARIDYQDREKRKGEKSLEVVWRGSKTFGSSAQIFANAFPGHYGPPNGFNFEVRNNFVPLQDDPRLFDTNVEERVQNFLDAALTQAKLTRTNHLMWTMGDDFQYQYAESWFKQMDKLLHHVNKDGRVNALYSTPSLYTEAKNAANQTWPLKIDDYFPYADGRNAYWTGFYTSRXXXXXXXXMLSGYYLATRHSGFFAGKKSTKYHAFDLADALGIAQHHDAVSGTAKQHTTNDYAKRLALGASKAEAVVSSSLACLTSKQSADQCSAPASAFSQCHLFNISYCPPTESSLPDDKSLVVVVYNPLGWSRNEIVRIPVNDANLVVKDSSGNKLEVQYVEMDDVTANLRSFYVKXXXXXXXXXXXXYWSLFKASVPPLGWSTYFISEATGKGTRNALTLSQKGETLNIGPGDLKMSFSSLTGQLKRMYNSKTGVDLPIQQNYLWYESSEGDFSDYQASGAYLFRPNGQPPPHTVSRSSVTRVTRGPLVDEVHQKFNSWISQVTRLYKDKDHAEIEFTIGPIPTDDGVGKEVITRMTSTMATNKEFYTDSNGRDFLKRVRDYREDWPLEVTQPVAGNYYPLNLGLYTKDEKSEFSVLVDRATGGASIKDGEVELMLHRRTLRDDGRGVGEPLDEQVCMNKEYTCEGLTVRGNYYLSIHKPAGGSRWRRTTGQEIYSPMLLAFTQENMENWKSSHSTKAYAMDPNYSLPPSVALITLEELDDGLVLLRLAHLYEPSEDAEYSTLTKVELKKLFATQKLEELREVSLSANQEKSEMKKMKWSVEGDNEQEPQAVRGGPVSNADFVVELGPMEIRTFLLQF
The experiment can be described thus: Jack bean α-mannosidase inhibition assay. The format is biochemical.

Experiment [4] concerns the target T4, Aspergillus saitoi α1,2-mannosidase (AspMan) (Aspergillus phoenicis, UniProt Q12563).
T4 sequence (Q12563 22-513): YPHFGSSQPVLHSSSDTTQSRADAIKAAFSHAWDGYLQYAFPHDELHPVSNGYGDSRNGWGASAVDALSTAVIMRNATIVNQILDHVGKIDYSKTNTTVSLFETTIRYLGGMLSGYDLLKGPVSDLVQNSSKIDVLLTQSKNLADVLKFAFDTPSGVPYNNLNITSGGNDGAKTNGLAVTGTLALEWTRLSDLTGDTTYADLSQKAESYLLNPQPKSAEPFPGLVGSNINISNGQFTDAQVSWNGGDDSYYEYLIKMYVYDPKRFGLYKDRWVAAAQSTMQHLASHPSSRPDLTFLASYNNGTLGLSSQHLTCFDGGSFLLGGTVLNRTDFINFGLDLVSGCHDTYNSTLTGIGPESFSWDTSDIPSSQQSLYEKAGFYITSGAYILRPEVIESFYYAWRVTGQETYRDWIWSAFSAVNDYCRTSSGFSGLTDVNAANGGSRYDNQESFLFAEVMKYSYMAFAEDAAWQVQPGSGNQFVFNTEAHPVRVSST
The format is biochemical.

In experiment [5] the target is T1, dGMIIb (Drosophila melanogaster Co(II)-activated Golgi α-mannosidase IIb). The following applies: cited from earlier work.
Experiment [6] concerns the target T3, jack bean α-mannosidase (JBMan). As to conditions: read-out: IC50 JBMan, cited from earlier work.
For experiment [7], the target named is dGMII (Drosophila melanogaster α-mannosidase II). The following applies: read-out: Ki dGMII (printed in dGMIIb column); ref Shah et al.[41]; cited from earlier work.

The term IC50 denotes the point on the concentration scale where inhibition reaches its midpoint. For `OC[C@H]1O[C@H](n2cc(-c3ccccc3)nn2)[C@@H](O)[C@@H](O)[C@@H]1O` [Compound 6, 1-α-D-mannopyranosyl-4-phenyl-1,2,3-triazole], the IC50 in experiment [1] turned out to be 5000 µM; in experiment [2] it was 5000 µM; in experiment [3], 400 µM; in experiment [4], 50 µM. Moreover, the “selectivity ratio [IC50(GH38)/IC50(GH47)]” value in experiment [4] (GH38 mannosidases vs GH47 AspMan) is on record as 100.
Consider `OC[C@H]1O[C@H](n2cc(Cc3ccccc3)nn2)[C@@H](O)[C@@H](O)[C@@H]1O` [Compound 7, 4-Benzyl-1-α-D-mannopyranosyl-1,2,3-triazole], for which the IC50 in experiment [1] is 5000 µM; in experiment [2], 500 µM; in experiment [3], 1100 µM; in experiment [4] it was 100 µM.
In the same order, the values of `OC[C@H]1O[C@H](n2cc(CCc3ccccc3)nn2)[C@@H](O)[C@@H](O)[C@@H]1O` [Compound 8, 1-α-D-mannopyranosyl-4-(2-phenylethyl)-1,2,3-triazole] are 6000 µM, 5000 µM, 400 µM and 250 µM.
On to `O=S(=O)(Cc1ccccc1)[C@H]1O[C@H](CO)[C@@H](O)[C@H](O)[C@@H]1O` [Compound 9, benzyl α-D-mannopyranosyl sulfone], for which the IC50 is 2000 µM in experiment [3] (read-out: IC50 JBMan, pNP-Manp substrate, pH 4.5) and 2000 µM in experiment [5] (read-out: IC50 dGMIIb, ref Poláková et al.[30]). For the same molecule, the “selectivity GMII vs LM” value in experiment [5] (ref [30]) was “selective towards GMII”.
A word on the Ki: it is a measure of affinity in units of concentration, obtained from inhibition or displacement. On to `O=C1N[C@@H]2[C@@H](O)[C@@H](O)[C@H](O)[C@@H](CO)N2C1=O` [Kifunensine], for which, in experiment [6] (ref Kayakiri et al.[42]), the IC50 is 120 µM. For the same molecule, in experiment [7], the Ki is 5200 µM.
Regarding `CS[C@@H]1[C@@H](N)[C@@H](O)[C@@H](O)[C@H]1O` [Mannostatin A, reference compound], the IC50 was 0.15 µM in experiment [1], 3 µM in experiment [2] and 0.24 µM in experiment [6] (ref Ogawa et al.[44]).
